Values joined by “and” are separate entries in the source; they are usually repeats but may differ in a detail not shown here. Identical values can stand only once. Like-named read-outs stand apart in the source and are kept apart here.
Assays:
[1] = system: trypsin; test: Kinetic constants for trypsin-catalyzed hydrolysis of BOC-ARG-MBTH, continuous assay (Example 18); assay type: biochemical; conditions: for kc (kinetic catalytic constant) / Km: tris buffer pH 7.8, 590 nm; for Km: read-out: Km (binding constant)
Protocol: Determination of the Kinetic Constants for the Trypsin Catalyzed Hydrolysis of N-(N-t-butoxycarbonyl)-L-Arginyl 3-methyl benzothiazolinone hydrazone (continuous assay)).
In a one cm. cuvette were mixed 3.0 mL of 0.02M tris buffer, pH 7.8, containing 0.02M 3-dimethylamino benzoic acid (DMAB) 0.1 mL of 0.065M potassium ferricyanide, and 0.1 mL of substrate (BOC-ARG-MBTH). The reaction was initiated by the addition of 1 0.1 mL of trypsin (2.33×10^-4 M in 0.1M pyrophosphate buffer, pH 8.3). Eight concentrations of substrate, from 9.98×10^-4 M to 7.8×10^-6 M, were assayed in triplicate. The increase in absorption at 590 nm was monitored continuously and the initial rates were determined. Under the conditions of the assay, a molar absorptivity of 57,000 was used to determine the concentration of the chromogen (MBTH-DMAB) produced by the hydrolysis of substrate. Table I contains the date used to determine the binding and kinetic constants (Km, kc).

[2] = system: trypsin; test: Continuous assay for trypsin, hydrolysis of Z-GLY-PRO-ARG-MBTH (Example 16); assay type: biochemical; conditions: 1 μg trypsin, 0.14M Tris pH 7.8, 0.0131M DMAB, 0.002M potassium ferricyanide, 3% dimethylformamide; substrate 1.74×10^-3, 5.8×10^-4 and 3.9×10^-4 M in triplicate; 590 nm, 5 minutes
Protocol: Saturation kinetics for N-(N-benzyloxycarbonyl)glycyl-L-prolyl-L-arginyl 3-methyl-2-benzothiazolinone hydrazone with trypsin).
A continuous assay for trypsin was performed, i.e., the oxidizing and coupling reagents for color development were included with the substrate in the reaction mixture so that color development may be monitored on a continuous basis with time. In this example the dye precursor is developed to a dye without destroying the enzymatic activity of the enzyme. The reaction was initiated by the addition of 0.1 mL of enzyme (10 μg/mL) to 0.9 mL of buffer solution containing substrate (Z-GLY-PRO-ARG-MBTH) and color developing reagents. The final concentrations in the cuvette were 1 μg trypsin +0.14M Tris buffer, pH 7.8 +0.0131M 3-dimethylamino benzoic acid (DMAB) +0.002M potassium ferricyanide +3% dimethylformamide +substrate. Substrate concentrations of 1.74×10^-3 M, 5.8×10^-4 M and 3.9×10^-4 M were assayed in triplicate. The increases in absorbance at 590 nm were monitored continuously for 5 minutes and the initial rates determined. Using the molar absorptivity of 57,000 for the chromogen produced (MBTH-DMAB), the average rate of hydrolysis was calculated to be 4.43±0.1×10^-6 mol min^-1.

[3] = Woolf-Augustinssen-Hofstee method

Cn1c(=NNC(=O)[C@H](CCCNC(=N)N)NC(=O)OC(C)(C)C)sc2ccccc21 [BOC-ARG-MBTH, N-(N-t-butoxycarbonyl)-L-Arginyl 3-methyl benzothiazolinone hydrazone]
I/V ([1]; I/S 100 M^-1): 0.000565 min/M and 0.000528 min/M and 0.000625 min/M
V/S ([1]; I/S 100 M^-1): 0.00177 min⁻¹ and 0.0019 min⁻¹ and 0.0016 min⁻¹
I/V ([1]; I/S 200 M^-1): 0.000699 min/M and 0.000742 min/M
V/S ([1]; I/S 200 M^-1): 0.00287 min⁻¹ and 0.0027 min⁻¹
I/V ([1]; I/S 401 M^-1): 0.000766 min/M and 0.00088 min/M and 0.000819 min/M
V/S ([1]; I/S 401 M^-1): 0.00523 min⁻¹ and 0.00456 min⁻¹ and 0.00489 min⁻¹
I/V ([1]; I/S 802 M^-1): 0.00108 min/M and 0.001188 min/M and 0.001033 min/M
V/S ([1]; I/S 802 M^-1): 0.00743 min⁻¹ and 0.00675 min⁻¹ and 0.00776 min⁻¹
I/V ([1]; I/S 1603 M^-1): 0.001697 min/M and 0.001607 min/M and 0.001827 min/M
V/S ([1]; I/S 1603 M^-1): 0.00945 min⁻¹ and 0.00877 min⁻¹
I/V ([1]; I/S 2305 M^-1): 0.002969 min/M and 0.003393 min/M
V/S ([1]; I/S 2305 M^-1): 0.01808 min⁻¹ and 0.0108 min⁻¹ and 0.00945 min⁻¹
I/V ([1]; I/S 6413 M^-1): 0.005056 min/M and 0.00528 min/M
V/S ([1]; I/S 6413 M^-1): 0.01268 min⁻¹ and 0.01215 min⁻¹
I/V ([1]; I/S 12826 M^-1): 0.009901 min/M and 0.009506 min/M
V/S ([1]; I/S 12826 M^-1): 0.01295 min⁻¹ and 0.01349 min⁻¹
kc (kinetic catalytic constant) ([1]; Lineweaver-Burk plot): 0.0436 s⁻¹
Km ([1]; Lineweaver-Burk plot): 1410 µM
kc (kinetic catalytic constant) [1, 3]: 0.0428 s⁻¹
Km [1, 3]: 1290 µM

Cn1c(=NNC(=O)[C@H](CCCNC(=N)N)NC(=O)[C@@H]2CCCN2C(=O)CNC(=O)OCc2ccccc2)sc2ccccc21 [Z-GLY-PRO-ARG-MBTH, N-(N-benzyloxycarbonyl)glycyl-L-prolyl-L-arginyl 3-methyl-2-benzothiazolinone hydrazone]
average rate of hydrolysis [2]: 4.43±0.1×10^-6 mol min^-1
